Source: US20090312280A1

Columns and labels:
[1] = tested on: HT29 human colon carcinoma xenografts; assay: in vivo chemopotentiation, HT29 xenograft (rat)
Experimental: (§1) Experiments 1 to 39 were conducted in mice xenografts. Experiments 40-42 were conducted in rat xenografts. Specifically, irinotecan combination studies were conducted in HT29 and Colo205. Gemcitabine combination studies were conducted in Colo205. Docetaxel combination studies were conducted in Colo205.
(§2) Gemcitabine and irinotecan are DNA directed cytotoxics known to induce checkpoint activation and subsequent S/G2M-phase arrest. […] Docetaxel is an antimitotics where recent discoveries describe a novel function for CHK1 in the mitotic checkpoint.

[2] = tested on: Colo205 human colon carcinoma xenografts; assay: in vivo chemopotentiation, Colo205 xenograft; design: species or system mice
Experimental: as §1, §2

[3] = tested on: HT29 human colon carcinoma xenografts; assay: in vivo chemopotentiation, HT29 xenograft (mice)
Experimental: as §1, §2

[4] = Exp 40, irinotecan 100 mg/kg IP Q3d×4, Compound 1 0 mg/kg
[5] = Exp 41, irinotecan 100 mg/kg IP Q3d×4 + Compound 1 25 mg/kg two hour IV infusion Q3d×4 24 h after
[6] = Exp 42, irinotecan 100 mg/kg IP Q3d×4 + Compound 1 100 mg/kg two hour IV infusion Q3d×4 24 h after
[7] = Exp 8, irinotecan 10 mg/kg IP Q3d×4, Compound 1 0 mg/kg
[8] = Exp 9, irinotecan 10 mg/kg IP Q3d×4 + Compound 1 4 mg/kg IP Q3d×4 24 h after
[9] = Exp 10, irinotecan 10 mg/kg IP Q3d×4 + Compound 1 20 mg/kg IP Q3d×4 24 h after
[10] = Exp 11, irinotecan 10 mg/kg IP Q3d×4 + Compound 1 40 mg/kg IP Q3d×4 24 h after
[11] = Exp 12, irinotecan 10 mg/kg IP Q3d×4, Compound 1 0 mg/kg
[12] = Exp 13, irinotecan 30 mg/kg IP Q3d×4, Compound 1 0 mg/kg
[13] = Exp 14, irinotecan 60 mg/kg IP Q3d×4, Compound 1 0 mg/kg
[14] = Exp 15, irinotecan 10 mg/kg IP Q3d×4 + Compound 1 40 mg/kg IP Q3d×4 24 h after
[15] = Exp 16, irinotecan 30 mg/kg IP Q3d×4 + Compound 1 40 mg/kg IP Q3d×4 24 h after
[16] = Exp 17, irinotecan 60 mg/kg IP Q3d×4 + Compound 1 40 mg/kg IP Q3d×4 24 h after
[17] = Exp 26, irinotecan 10 mg/kg IP Q3d×4, Compound 1 0 mg/kg
[18] = Exp 27, irinotecan 10 mg/kg IP Q3d×4 + Compound 1 4 mg/kg IP Q3d×4 24 h after
[19] = Exp 28, irinotecan 10 mg/kg IP Q3d×4 + Compound 1 20 mg/kg IP Q3d×4 24 h after
[20] = Exp 29, irinotecan 10 mg/kg IP Q3d×4 + Compound 1 40 mg/kg IP Q3d×4 24 h after
[21] = Exp 30, irinotecan 10 mg/kg IP Q3d×4, Compound 1 0 mg/kg
[22] = Exp 31, irinotecan 30 mg/kg IP Q3d×4, Compound 1 0 mg/kg
[23] = Exp 32, irinotecan 60 mg/kg IP Q3d×4, Compound 1 0 mg/kg
[24] = Exp 33, irinotecan 10 mg/kg IP Q3d×4 + Compound 1 40 mg/kg IP Q3d×4 24 h after
[25] = Exp 34, irinotecan 30 mg/kg IP Q3d×4 + Compound 1 40 mg/kg IP Q3d×4 24 h after
[26] = Exp 35, irinotecan 60 mg/kg IP Q3d×4 + Compound 1 40 mg/kg IP Q3d×4 24 h after
[27] = Exp 36, irinotecan 50 mg/kg IP Q1w×3, Compound 1 0 mg/kg
[28] = Exp 37, irinotecan 100 mg/kg IP Q1w×3, Compound 1 0 mg/kg
[29] = Exp 38, irinotecan 50 mg/kg IP Q1w×3 + Compound 1 40 mg/kg IP twice weekly, 24 and 72 h after, three weeks
[30] = Exp 39, irinotecan 100 mg/kg IP Q1w×3 + Compound 1 40 mg/kg IP twice weekly, 24 and 72 h after, three weeks

SMILES: CCc1c2c(nc3ccc(OC(=O)N4CCC(N5CCCCC5)CC4)cc13)-c1cc3c(c(=O)n1C2)COC(=O)[C@]3(O)CC [Irinotecan]
- % TGI [1, 4]: 45%
- Growth delay [1, 4]: 4.0 days
- % TGI [1, 5]: 58%
- % poten TGI [1, 5]: 23%
- Growth delay [1, 5]: 4.0 days
- % TGI [1, 6]: 77%
- % TTP [1, 6]: 24%
- % poten TGI [1, 6]: 58%
- Growth delay [1, 6]: 8.0 days
- % TGI [2, 7]: 35%
- Growth delay [2, 7]: 18 days
- % TGI [2, 8]: 50%
- % poten TGI [2, 8]: 22%
- Growth delay [2, 8]: 18 days
- % TGI [2, 9]: 69%
- % TTP [2, 9]: 33%
- % poten TGI [2, 9]: 52%
- Growth delay [2, 9]: 24 days
- % TGI [2, 10]: 59%
- % TTP [2, 10]: 12%
- % poten TGI [2, 10]: 37%
- Growth delay [2, 10]: 20.5 days
- % TGI [2, 11]: 35%
- Growth delay [2, 11]: 18 days
- % TGI [2, 12]: 65%
- Growth delay [2, 12]: 22 days
- % TGI [2, 13]: 83%
- Growth delay [2, 13]: 48 days
- % TGI [2, 14]: 59%
- % TTP [2, 14]: 12%
- % poten TGI [2, 14]: 37%
- Growth delay [2, 14]: 20.5 days
- % TGI [2, 15]: 73%
- % TTP [2, 15]: 54%
- % poten TGI [2, 15]: 24%
- Growth delay [2, 15]: 34 days
- % TGI [2, 16]: 91%
- % TTP [2, 16]: 8%
- % poten TGI [2, 16]: 47%
- Growth delay [2, 16]: 52 days
- % TGI [3, 17]: 26%
- Growth delay [3, 17]: 1.75 days
- % TGI [3, 18]: 26%
- % TTP [3, 18]: 29%
- Growth delay [3, 18]: 7.5 days
- % TGI [3, 19]: 61%
- % TTP [3, 19]: 39%
- % poten TGI [3, 19]: 47%
- Growth delay [3, 19]: 9.5 days
- % TGI [3, 20]: 57%
- % TTP [3, 20]: 44%
- % poten TGI [3, 20]: 42%
- Growth delay [3, 20]: 10.5 days
- % TGI [3, 21]: 8%
- Growth delay [3, 21]: 2.75 days
- % TGI [3, 22]: 13%
- Growth delay [3, 22]: 4 days
- % TGI [3, 23]: 49%
- Growth delay [3, 23]: 12.5 days
- % TGI [3, 24]: 22%
- % TTP [3, 24]: 0%
- % poten TGI [3, 24]: 15%
- Growth delay [3, 24]: 1.0 days
- % TGI [3, 25]: 66%
- % TTP [3, 25]: 61%
- % poten TGI [3, 25]: 60%
- Growth delay [3, 25]: 17.5 days
- % TGI [3, 26]: 77%
- % TTP [3, 26]: 28%
- % poten TGI [3, 26]: 55%
- Growth delay [3, 26]: 21 days
- % TGI [3, 27]: 65%
- Growth delay [3, 27]: 7.5 days
- % TGI [3, 28]: 70%
- Growth delay [3, 28]: 11.5 days
- % TGI [3, 29]: 77%
- % TTP [3, 29]: 24%
- % poten TGI [3, 29]: 36%
- Growth delay [3, 29]: 14 days
- % TGI [3, 30]: 89%
- % TTP [3, 30]: 49%
- % poten TGI [3, 30]: 62%
- Growth delay [3, 30]: 21 days
